The IC50 is the concentration needed to halve the response being measured.

Structures are written as SMILES. Counter-ions that a name gives are not always drawn.

This test has as its target T1, ENaC (Homo sapiens, UniProt P37088+P51168+P51170).
T1 construct: host or cells: primary human bronchial epithelial cells (HBECs) differentiated at an air-liquid interface
T1 sequence (P37088 1-669): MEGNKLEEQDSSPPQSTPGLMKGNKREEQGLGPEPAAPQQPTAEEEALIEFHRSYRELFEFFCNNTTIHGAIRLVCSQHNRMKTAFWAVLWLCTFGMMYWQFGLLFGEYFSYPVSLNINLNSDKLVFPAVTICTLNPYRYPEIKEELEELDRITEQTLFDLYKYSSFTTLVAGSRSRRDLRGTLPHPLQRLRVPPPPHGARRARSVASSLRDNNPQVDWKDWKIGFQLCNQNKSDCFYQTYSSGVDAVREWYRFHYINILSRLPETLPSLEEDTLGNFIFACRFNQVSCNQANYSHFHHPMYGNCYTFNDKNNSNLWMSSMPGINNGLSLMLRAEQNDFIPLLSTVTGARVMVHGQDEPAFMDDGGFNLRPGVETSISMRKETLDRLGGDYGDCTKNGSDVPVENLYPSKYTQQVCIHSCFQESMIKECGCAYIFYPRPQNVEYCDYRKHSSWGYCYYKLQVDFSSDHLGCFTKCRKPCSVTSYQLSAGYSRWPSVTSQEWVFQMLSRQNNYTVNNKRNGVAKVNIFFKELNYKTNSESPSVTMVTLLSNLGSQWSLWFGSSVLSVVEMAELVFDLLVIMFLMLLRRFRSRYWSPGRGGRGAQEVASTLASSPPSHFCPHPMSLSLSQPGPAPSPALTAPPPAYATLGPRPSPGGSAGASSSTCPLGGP
T1 sequence (P51168 1-640): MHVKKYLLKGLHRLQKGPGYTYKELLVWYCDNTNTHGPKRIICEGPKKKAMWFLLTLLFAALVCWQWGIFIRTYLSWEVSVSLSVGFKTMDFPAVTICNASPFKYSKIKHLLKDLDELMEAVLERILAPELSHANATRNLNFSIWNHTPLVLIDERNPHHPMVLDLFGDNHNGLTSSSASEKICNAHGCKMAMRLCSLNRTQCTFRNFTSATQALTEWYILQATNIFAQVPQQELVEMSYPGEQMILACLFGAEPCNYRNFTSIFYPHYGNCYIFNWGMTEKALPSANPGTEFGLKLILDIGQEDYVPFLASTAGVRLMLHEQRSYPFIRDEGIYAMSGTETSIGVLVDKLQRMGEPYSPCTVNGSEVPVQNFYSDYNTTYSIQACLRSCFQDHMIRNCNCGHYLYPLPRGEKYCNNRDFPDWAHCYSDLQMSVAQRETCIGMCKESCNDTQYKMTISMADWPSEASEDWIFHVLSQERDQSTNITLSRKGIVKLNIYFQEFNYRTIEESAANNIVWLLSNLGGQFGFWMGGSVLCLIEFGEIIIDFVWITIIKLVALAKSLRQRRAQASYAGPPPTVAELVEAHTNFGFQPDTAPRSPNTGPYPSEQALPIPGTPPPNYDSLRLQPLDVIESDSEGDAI
T1 sequence (P51170 1-649): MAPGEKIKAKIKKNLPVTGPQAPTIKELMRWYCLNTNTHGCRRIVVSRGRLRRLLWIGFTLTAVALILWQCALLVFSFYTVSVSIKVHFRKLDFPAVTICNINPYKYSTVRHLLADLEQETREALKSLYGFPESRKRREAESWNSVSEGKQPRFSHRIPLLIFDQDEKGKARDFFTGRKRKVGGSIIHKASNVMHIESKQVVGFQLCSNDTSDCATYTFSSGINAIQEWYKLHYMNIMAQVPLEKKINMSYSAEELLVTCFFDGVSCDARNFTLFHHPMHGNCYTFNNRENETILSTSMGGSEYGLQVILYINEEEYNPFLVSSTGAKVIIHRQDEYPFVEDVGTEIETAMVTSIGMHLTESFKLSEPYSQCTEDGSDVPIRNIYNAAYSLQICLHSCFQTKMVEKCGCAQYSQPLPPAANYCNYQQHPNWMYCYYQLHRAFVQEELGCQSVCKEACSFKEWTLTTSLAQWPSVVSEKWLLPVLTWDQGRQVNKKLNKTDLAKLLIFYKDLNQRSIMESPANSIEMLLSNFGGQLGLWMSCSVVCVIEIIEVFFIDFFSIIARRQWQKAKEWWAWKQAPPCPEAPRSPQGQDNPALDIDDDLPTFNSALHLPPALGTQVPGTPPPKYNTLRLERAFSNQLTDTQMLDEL
Description: Short circuit current assay to determine ENaC blocker potency in human bronchial epithelial cells. The test is classed as cell-based. The following applies: 50% inhibition of total amiloride-sensitive ISC, HBECs, apical addition; read-out: Averages. ENaC Ic50 μm Avg. As for the experimental part: Example 27—Short Circuit Current Assay to Determine ENaC Blocker Potency in Human Bronchial Epithelial Cells
Human bronchial epithelial cells (HBECs) (Lonza, UK) were cultured using a modification of the method described by Coote et al, (2008). Cells were seeded into plastic T-75 flasks and grown in Bronchial Epithelial Cell Growth Medium (BEGM) (Lonza, UK) supplemented with bovine pituitary extract (52 ng/mL), hydrocortisone (0.5 μg/mL), human recombinant Epidermal Growth Factor (0.5 ng/mL), epinephrine (0.5 ng/mL), transferrin (10 ng/mL), insulin (5 ng/mL), retinoic acid (0.1 ng/mL), triiodothyronine (6.5 ng/mL), gentamycin (50 μg/mL) and amphotericin-B (50 ng/mL). Medium was changed every 48 hours until cells were 90% confluent. Cells were then passaged and seeded (8.25×10^5 cells/insert) onto polycarbonate Snapwell™ inserts (Costar, UK) in differentiation media containing 50% DMEM in BGEM with the same supplements as above but without triiodothyronine and a final retinoic acid concentration of 50 nM (all-trans retinoic acid; Sigma-Aldrich, UK). Cells were maintained submerged for the first 7 days in culture after which time they were exposed to an apical air interface for the remainder of the culture period. From the first day of establishment of an ALI, HBEC were fed with a DMEM:HAMS F-12 (1:1) media containing 2% Ultroser G (Pall BioSepra, France) with gentamycin (50 μg/mL) and amphotericin B (50 ng/mL). Cells were used for short-circuit current assay between days 14-21 after the establishment of the ALI. At all stages of culture, cells were maintained at 37′C in 5% CO2 in an air incubator.
Short-Circuit Current (ISC) Measurements
Snapwell inserts were mounted in Costar Vertical Diffusion Chambers (Costar, UK) and were bathed with continuously gassed Ringer solution (5% CO2 in O2; pH 7.4) maintained at 37° C. containing (in mM): 120 NaCl, 25 NaHCO3, 3.3 KH2PO4, 0.8 K2HPO4, 1.2 CaCl2, 1.2 MgCl2 and 10 glucose. The solution osmolarity was always between 280-300 mOsm/kg H2O for all physiological salt solutions used. Cells were voltage clamped to 0 mV (model EVC4000, WPI). Transepithelial resistance (RT) was measured by applying a 2 mV pulse at 30 s intervals and calculating RT by Ohm's law. Data were recorded using a PowerLab workstation (ADInstruments, UK).
ENaC blocker compounds were added to the apical chamber from a 1000-fold stock solution (prepared in DMSO) to achieve a cumulative concentration response in terms of the inhibition of the basal ISC. At the completion of the concentration response, a supra-maximal concentration of amiloride (10 μM) was added. The concentration of test compound that induced a 50% inhibition of the total amiloride-sensitive ISC (IC50) was calculated using GraphPad Prism v6.05.
Turning to `CCn1c(CNC(=O)c2nc(Br)cnc2N)[n+](CC)c2ccc(OC)cc21.O=C[O-]` [Example 2, 2-{[(3-amino-6-bromopyrazin-2-yl)formamido]methyl}-1,3-diethyl-6-methoxy-1H-1,3-benzodiazol-3-ium formate], the IC50 amounted to 1 nM.

With `CCn1c(CNC(=O)c2nc(Br)cnc2N)[n+](CCO)c2ccc(OC)cc21.O=C[O-]` [Example 3, 2-{[(3-amino-6-bromopyrazin-2-yl)formamido]methyl}-1-ethyl-3-(2-hydroxyethyl)-6-methoxy-1H-1,3-benzodiazol-3-ium formate], the IC50 came to 1 nM.

As to `CCn1c(CNC(=O)c2nc(Br)cnc2N)[n+](CCOCCOCCO)c2ccc(OC)cc21.O=C[O-]` [Example 4, 2-{[(3-amino-6-bromopyrazin-2-yl)formamido]methyl}-1-ethyl-3-{2-[2-(2-hydroxyethoxy)ethoxy]ethyl}-6-methoxy-1H-1,3-benzodiazol-3-ium formate], the IC50 is 4 nM.

Turning to `CCn1c(CNC(=O)c2nc(Cl)cnc2N)[n+](C)c2ccc(OC)cc21.[I-]` [Example 5, 2-{[(3-amino-6-chloropyrazin-2-yl)formamido]methyl}-1-ethyl-6-methoxy-3-methyl-1H-1,3-benzodiazol-3-ium iodide], the IC50 is 2 nM.

Consider `CCn1c(CNC(=O)c2nc(C)cnc2N)[n+](C)c2ccc(OC)cc21.[I-]` [Example 7, 2-{[(3-amino-6-methylpyrazin-2-yl)formamido]methyl}-1-ethyl-6-methoxy-3-methyl-1H-1,3-benzodiazol-3-ium iodide], for which the IC50 stood at 4 nM.

For the compound `CCc1cnc(N)c(C(=O)NCc2n(CC)c3cc(OC)ccc3[n+]2C)n1.[I-]` [Example 8, 2-{[(3-amino-6-ethylpyrazin-2-yl)formamido]methyl}-1-ethyl-6-methoxy-3-methyl-1H-1,3-benzodiazol-3-ium iodide], the IC50 amounted to 224 nM.

Regarding `CCn1c(CNC(=O)c2nc(SC)cnc2N)[n+](C)c2ccc(OC)cc21.[I-]` [Example 9, 2-({[3-amino-6-(methylsulfanyl)pyrazin-2-yl]formamido}methyl)-1-ethyl-6-methoxy-3-methyl-1H-1,3-benzodiazol-3-ium iodide], the IC50 turned out to be 74 nM.

On to `CCn1c(CNC(=O)c2nc(Br)cnc2N)[n+](C)c2ccc(Cl)cc21.O=CO.O=C[O-]` [Example 11, 2-{[(3-amino-6-bromopyrazin-2-yl)formamido]methyl}-6-chloro-1-ethyl-3-methyl-1H-1,3-benzodiazol-3-ium formic acid formate], for which the IC50 amounted to 2 nM.

On to `CCn1c(CNC(=O)c2nc(Br)cnc2N)[n+](C)c2ccc(F)cc21.O=C[O-]` [Example 12, 2-{[(3-amino-6-bromopyrazin-2-yl)formamido]methyl}-1-ethyl-6-fluoro-3-methyl-1H-1,3-benzodiazol-3-ium formate], for which the IC50 stood at 19 nM.

Take `CCn1c(CNC(=O)c2nc(Br)cnc2N)[n+](C)c2ccc(C(F)(F)F)cc21.[I-]` [Example 13, 2-{[(3-amino-6-bromopyrazin-2-yl)formamido]methyl}-1-ethyl-3-methyl-6-(trifluoromethyl)-1H-1,3-benzodiazol-3-ium iodide]: the IC50 turned out to be 4 nM.

Turning to `CCn1c(CNC(=O)c2nc(Br)cnc2N)[n+](C)c2ccc(OC(F)(F)F)cc21.O=C[O-]` [Example 14, 2-{[(3-amino-6-bromopyrazin-2-yl)formamido]methyl}-1-ethyl-3-methyl-6-(trifluoromethoxy)-1H-1,3-benzodiazol-3-ium formate], the IC50 was 3 nM.

Regarding `CCn1c(CNC(=O)c2nc(Br)cnc2N)[n+](CC)c2ccc(C(=O)OC)cc21.[I-]` [Example 15, 2-{[(3-amino-6-bromopyrazin-2-yl)formamido]methyl}-1,3-diethyl-6-(methoxycarbonyl)-1H-1,3-benzodiazol-3-ium iodide], the IC50 was found to be 2 nM.

Consider `CCn1c(CNC(=O)c2nc(Br)cnc2N)[n+](CC)c2ccc(C(=O)N[C@@H]3CCOC3=O)cc21` [Example 17, 2-{[(3-amino-6-bromopyrazin-2-yl)formamido]methyl}-1,3-diethyl-6-{[(3R)-2-oxooxolan-3-yl]carbamoyl}-1H-1,3-benzodiazol-3-ium formate], for which the IC50 turned out to be 3 nM.

As to `CCn1c(CNC(=O)c2nc(Br)cnc2N)[n+](CC)c2ccc(C(=O)N[C@H]3CCOC3=O)cc21` [Example 18, 2-{[(3-amino-6-bromopyrazin-2-yl)formamido]methyl}-1,3-diethyl-6-{[(3S)-2-oxooxolan-3-yl]carbamoyl}-1H-1,3-benzodiazol-3-ium formate], the IC50 was determined as 4 nM.

For `CCn1c(CNC(=O)c2nc(Br)cnc2N)[n+](Cc2ccccc2)c2ccc(C(F)(F)F)cc21.O=C[O-]` [Example 19, 2-{[(3-Amino-6-bromopyrazin-2-yl)formamido]methyl}-3-benzyl-1-ethyl-6-(trifluoromethyl)-1H-1,3-benzodiazol-3-ium formate], the IC50 was 4 nM.

Source of the values: US10759785B2, “Compounds” (ENTERPRISE THERAPEUTICS LIMITED, priority 2016, dated 2020).
